From US12133855B2, “Lipid-like nanocomplexes and uses thereof” (Trustees of Tufts College, priority 2018, dated 2024)

Legend:
HeLa-DsRed cells [1] = experiment: Internalization mechanism study with endocytosis inhibitors; format: cell-based; settings: [lipidoid]=6.6 μg mL^−1, [(−30)GFP-Cre]=100 nM; 6 h
Text: In this context, the internalization mechanism of the (−30)GFP-Cre/LNPs complexes was studied at first, by introducing different endocytosis inhibitors, i.e., sucrose (clathrin-mediated endocytosis inhibitor), methyl-β-cyclodextrin (M-β-CD, cholesterol-depleting agent), dynasore (dynamin II inhibitor) and nystatin (caveolin-mediated endocytosis inhibitor), following our previously reported procedures. […] Comparing to other combinatorial library studies, it is clear that even loaded with same cargoes and tested against same cell line, different lipidoids with different chemical structures could be internalized through very distinct pathways. Next, the genome-editing efficiencies of (−30)GFP-Cre/LNPs were determined by flow cytometry after 24 h of incubation (with 8 h of (−30)GFP-Cre/LNPs complex exposure). Three different concentrations of protein/lipidoid complexes (25 nM/1.7 μg mL^−1, 50 nM/3.4 μg mL^−1, and 100 nM/6.6 μg mL^−1) were tested for each lipidoid nanoparticle. […] For example, the DsRed^+ cells were recorded as 10.5%/24.9%/88.9%, 13.5%/55.4%/88.8%, and 27.7%/47.8%/94.7% for (−30)GFP-Cre loaded 75-OCholB, 76-OCholB and 77-OCholB, respectively, at the protein concentration of 25, 50 and 100 nM. […] Then, the cytotoxicity profiles of (−30)GFP-Cre/LNPs, (−30)GFP-Cre/Lpf2k and naked (−30)GFP-Cre at different concentrations against HeLa-DsRed cells (8 h of exposure; (−30)GFP-Cre/LNPs=25 nM/1.7 μg mL^−1, 50 nM/3.4 μg mL^−1, and 100 nM/6.6 μg mL^−1) are measured using MTT assay after 24 h of incubation. […] For (−30)GFP-Cre/75-OCholB treated cells, the viabilities were determined to be 95.5%, 91.8% and 83.1%, at the protein concentration of 25, 50 and 100 nM, respectively; the numbers for (−30)GFP-Cre/76-OCholB and (−30)GFP-Cre/77-OCholB are 97.8%/98.2%/97.2 and 100.9%/96.6%/98.6%. […] Meanwhile, the morphology changes of HeLa-DsRed cell treated with different nanoparticle formulations were studied and the results are shown in FIG. 15E. […]

[2] = Storage stability of LNPs (time-dependent DLS, DiO/DiI FRET); format: physicochemical; settings: DiO and DiI encapsulated LNPs, 7 days of storage
Procedure: The morphologies of LNPs were further studied by the transmission electron microscopy (TEM). […] Subsequently, the stability of LNPs thus prepared was examined by DLS and fluorescence measurements.
The cell (HeLa and HeLa-DsRed cell lines) internalization studies were conducted using small molecular hydrophobic (nile red) and hydrophilic (calcein) fluorescent dyes and macromolecular fluorescent recombinant protein ((−30)GFP-Cre) loaded OCholB LNPs. The stabilities of cargo-loaded LNPs were examined at first using time-dependent DLS and fluorescence measurements.

HeLa-DsRed cells [3] = experiment: Genome editing efficiency of (−30)GFP-Cre/OCholB LNPs (DsRed+ cells); format: cell-based; settings: for DsRed^+ cells: 8 h exposure, 24 h incubation
Text: In this context, the internalization mechanism of the (−30)GFP-Cre/LNPs complexes was studied at first, by introducing different endocytosis inhibitors, i.e., sucrose (clathrin-mediated endocytosis inhibitor), methyl-β-cyclodextrin (M-β-CD, cholesterol-depleting agent), dynasore (dynamin II inhibitor) and nystatin (caveolin-mediated endocytosis inhibitor), following our previously reported procedures. […] Comparing to other combinatorial library studies, it is clear that even loaded with same cargoes and tested against same cell line, different lipidoids with different chemical structures could be internalized through very distinct pathways. Next, the genome-editing efficiencies of (−30)GFP-Cre/LNPs were determined by flow cytometry after 24 h of incubation (with 8 h of (−30)GFP-Cre/LNPs complex exposure). Three different concentrations of protein/lipidoid complexes (25 nM/1.7 μg mL^−1, 50 nM/3.4 μg mL^−1, and 100 nM/6.6 μg mL^−1) were tested for each lipidoid nanoparticle. […] For example, the DsRed^+ cells were recorded as 10.5%/24.9%/88.9%, 13.5%/55.4%/88.8%, and 27.7%/47.8%/94.7% for (−30)GFP-Cre loaded 75-OCholB, 76-OCholB and 77-OCholB, respectively, at the protein concentration of 25, 50 and 100 nM. […] Then, the cytotoxicity profiles of (−30)GFP-Cre/LNPs, (−30)GFP-Cre/Lpf2k and naked (−30)GFP-Cre at different concentrations against HeLa-DsRed cells (8 h of exposure; (−30)GFP-Cre/LNPs=25 nM/1.7 μg mL^−1, 50 nM/3.4 μg mL^−1, and 100 nM/6.6 μg mL^−1) are measured using MTT assay after 24 h of incubation. […] For (−30)GFP-Cre/75-OCholB treated cells, the viabilities were determined to be 95.5%, 91.8% and 83.1%, at the protein concentration of 25, 50 and 100 nM, respectively; the numbers for (−30)GFP-Cre/76-OCholB and (−30)GFP-Cre/77-OCholB are 97.8%/98.2%/97.2 and 100.9%/96.6%/98.6%. […] Meanwhile, the morphology changes of HeLa-DsRed cell treated with different nanoparticle formulations were studied and the results are shown in FIG. 15E. […] Samples found in upper left quadrant are non-toxic and inefficient for delivery; samples in lower left quadrant are toxic and inefficient; samples in lower right quadrant are efficient but toxic; samples in upper right quadrant are non-toxic and efficient, which would be top candidates for further study. It is clear that Lpf2k (shown in dotted purple circle) at high concentration is relatively efficient for genome editing, while also toxic to the target cells. On the other hand, most of the (−30)GFP-Cre loaded OCholB LNPs are almost non-toxic when compared to (−30)GFP-Cre/Lpf2k, similar to naked (−30)GFP-Cre protein. 87-OCholB, 90-OCholB and 304-OCholB (shown in dotted dark blue circle) are less efficient for genome-editing; while high genome editing efficacy and excellent tolerability were achieved by using 75-OCholB, 76-OCholB and 77-OCholB (shown in dotted green circle).

[4] = protein/lipidoid 25 nM/1.7 μg mL^−1
[5] = protein/lipidoid 50 nM/3.4 μg mL^−1
[6] = protein/lipidoid 100 nM/6.6 μg mL^−1

| SMILES | internalization efficiency with endocytosis inhibitors (HeLa-DsRed cells [1]) | FRET ratio (I575/I575+I505) variations [2] | DsRed^+ cells (HeLa-DsRed cells [3]; [4]) | DsRed^+ cells (HeLa-DsRed cells [3]; [5]) | DsRed^+ cells (HeLa-DsRed cells [3]; [6]) | genome editing efficacy (DsRed^+ cells), overall (HeLa-DsRed cells [3]; (−30)GFP-Cre 25, 50 and 100 nM) |
| --- | --- | --- | --- | --- | --- | --- |
| CCN(CC)CCN(CCC(=O)OCCSSCCNC(=O)OC1CCC2(C)C(=CCC3C2CCC2(C)C(C(C)CCCC(C)C)CCC32)C1)CCC(=O)OCCSSCCNC(=O)OC1CCC2(C)C(=CCC3C2CCC2(C)C(C(C)CCCC(C)C)CCC32)C1 (stereo not shown) [Lipidoid 75-OCholB] | significantly suppressed by sucrose and dynasore | negligible variations | 10.5% | 24.9% | – | – |
| CC(C)CCCC(C)C1CCC2C3CC=C4CC(OC(=O)NCCSSCCOC(=O)CCN(CCC(=O)OCCSSCCNC(=O)OC5CCC6(C)C(=CCC7C6CCC6(C)C(C(C)CCCC(C)C)CCC76)C5)CCN5CCCC5)CCC4(C)C3CCC12C (stereo not shown) [Lipidoid 76-OCholB] | significantly suppressed by sucrose and dynasore | negligible variations | 13.5% | 55.4% | – | – |
| CC(C)CCCC(C)C1CCC2C3CC=C4CC(OC(=O)NCCSSCCOC(=O)CCN(CCC(=O)OCCSSCCNC(=O)OC5CCC6(C)C(=CCC7C6CCC6(C)C(C(C)CCCC(C)C)CCC76)C5)CCC5CCCN5C)CCC4(C)C3CCC12C (stereo not shown) [Lipidoid 77-OCholB] | significantly suppressed by sucrose and dynasore | negligible variations | 27.7% | 47.8% | – | – |
| CC(C)CCCC(C)C1CCC2C3CC=C4CC(OC(=O)NCCSSCCOC(=O)CCN(CCC(=O)OCCSSCCNC(=O)OC5CCC6(C)C(=CCC7C6CCC6(C)C(C(C)CCCC(C)C)CCC76)C5)CCN(C)C)CCC4(C)C3CCC12C (stereo not shown) [Lipidoid 78-OCholB] | – | – | – | – | out-performed Lpf2k | – |
| CC(C)CCCC(C)C1CCC2C3CC=C4CC(OC(=O)NCCSSCCOC(=O)CCN(CCCN(C)C)CCC(=O)OCCSSCCNC(=O)OC5CCC6(C)C(=CCC7C6CCC6(C)C(C(C)CCCC(C)C)CCC76)C5)CCC4(C)C3CCC12C (stereo not shown) [Lipidoid 80-OCholB] | – | – | – | – | out-performed Lpf2k | – |
| CCN(CC)CCCN(CCC(=O)OCCSSCCNC(=O)OC1CCC2(C)C(=CCC3C2CCC2(C)C(C(C)CCCC(C)C)CCC32)C1)CCC(=O)OCCSSCCNC(=O)OC1CCC2(C)C(=CCC3C2CCC2(C)C(C(C)CCCC(C)C)CCC32)C1 (stereo not shown) [Lipidoid 81-OCholB] | – | – | – | – | out-performed Lpf2k | – |
| CC(C)CCCC(C)C1CCC2C3CC=C4CC(OC(=O)NCCSSCCOC(=O)CCN(C)CCN(CCN(C)CCC(=O)OCCSSCCNC(=O)OC5CCC6(C)C(=CCC7C6CCC6(C)C(C(C)CCCC(C)C)CCC76)C5)CCN(C)CCC(=O)OCCSSCCNC(=O)OC5CCC6(C)C(=CCC7C6CCC6(C)C(C(C)CCCC(C)C)CCC76)C5)CCC4(C)C3CCC12C (stereo not shown) [Lipidoid 304-OCholB] | – | – | – | – | – | less efficient at delivery |
